Data as given in patent publication US11260050B2, “Combination of cotinine plus antioxidant for treatment-resistant depression and correction of astrocytes functional deficit induced by depression and other neuropathological” (UNIVERSIDAD SAN SEBASTIAN, priority 2017, dated 2022).

Columns and labels:
restrained mice [1] = assay: Forced swim test, oral co-treatment during restraint stress (Example 3); assay type: in vivo, C57BL/6J mice; conditions: oral cotinine 5 mg/kg, KO 143 mg/kg or both, vs vehicle-treated restrained mice
Description: Mice after acclimatization and one week of handling were randomly divided into five groups (n=8/condition) and orally treated as follow: 1) control non-restrained mice treated with vehicle (PBS, pH 7.4); 2) restrained mice treated with vehicle; 3), restrained mice treated with a cotinine solution (5 mg/kg in PBS, pH 7.4) via gavage; 4) restrained mice treated with KO (143 mg/kg); 5) restrained mice treated with cotinine plus KO solution. Mice were started with treatments, the first day of restraint and continuously until euthanasia. Treatments were administered at the same time of the day, 30 min before restraint. After 21 days into treatments, mice were behaviorally tested (FIG. 17).
Restraint stress (RS) was used as a model of chronic stress-induced depressive-like behavior and cognitive impairment. We used this task because is a reliable method that mimics the effects of chronic stress without causing physical pain or unnecessary discomfort to the mice. Mice were gently introduced into a 50-ml conical transparent plastic tubes (Corning Inc.). The tubes contain non-protruding perforations in both ends and in the walls to permit ventilation and only permitted slight movements. […]
The forced swim (FS) is a broadly used task to assess depressive-like behavior in rodents. […] Immobility time was recorded and quantified by two investigators blind to the treatment groups.

[2] = tested on: mice subjected to fear conditioning; assay: Elevated plus maze after fear conditioning (Example 1, Experiment 3); assay type: in vivo, C57BL/6 mice; conditions: FC mice, IN post-treatment; Veh 68.14±5.573, N=5
Description: Mice were treated via IN 2 hours after fear conditioning and continuously until euthanasia.
Mice (n=5-6/condition) received daily treatments with 1. PBS (phosphate buffer saline, pH 7.4) via intranasal (2×12 μl/nostril), 2. Cotinine dissolved in PBS via intranasal (Cot IN, 10 mg/ml, 2×12 μl/nostril); 3. Cotinine+krill oil both dissolved in PBS via intranasal (Cot IN, 10 mg/ml+KO, 48 mg/ml, 2×12 μl/nostril).
Contextual FC was performed as described. The conditioning chamber used is surrounded by a sound-attenuating box with a camera connected to freeze frame software (MED Associates Inc.), also equipped to provide a background white noise (72 dB). The conditioning chamber (33 cm×20 cm×22 cm) contains in one side a speaker and in the opposite slide has a 24V light. The chamber has a 36-bar insulated shock grid floor. Mice were placed in the conditioning chamber for 2 min before the onset of a discrete tone (a sound that will last 30 seconds (sec) at 2,800 Hz and 85 dB). In the last two seconds of this tone, mice received a foot shock of 1 mA and kept in the conditioning chamber for 2 min and then returned to their cages. Between trials, the chamber was sanitized with 70% ethanol and dried. Freezing behavior that is defined as the absence of all movement except the one needed for breathing was assessed using the FreezeView Software (MED Associates Inc.). […]

restrained mice [3] = assay: Forced swim test after chronic restraint stress (Example 2); assay type: in vivo, C57BL/6 male mice; conditions: IN cotinine post-treatment, p<0.01
Description: Mice between 2-3 months of age after one week of acclimatization were randomly divided into two groups. Stressed mice were subjected to restraint stress. Control (non-restrained) mice were allowed to move freely during this period. After the stress exposure period, mice were divided into three experimental groups: 1) Non-restrained mice treated with vehicle (PBS, pH 7.4) serving as unstressed controls (n=8); 2) Restrained mice (RS) treated with vehicle (n=8); 3), RS mice treated with 24 μl of a cotinine solution (10 mg/ml in PBS, pH 7.4) via intranasal route of administration (n=6). Treatments were administered daily until euthanasia. After two weeks of treatments mice were behaviorally tested and euthanized (FIG. 10) Intranasal delivery was performed as previously described (Hanson and Frey, 2007). Mice at 2-3 months of age were hand-restrained, positioned in a supine position, and administered two 12 μl drops of cotinine solution (10 mg/ml in PBS), or PBS alone, into both nares. Mice were given an extra 12 μl treatment drop if the mouse expelled out the solution. Mice were kept in the supine posture for 5 seconds after delivery to facilitate the delivery. The administration was performed daily until euthanasia. […] Mice were placed in a transparent cylinder filled with water at 25° C. for 5 min and behavior was recorded. […]

CN1C(=O)CC[C@H]1c1cccnc1 [Cotinine, (5S)-1-methyl-5-(3-pyridyl) pyrrolidin-2-one]
immobility in the forced swim test (restrained mice [1]): no significant differences | time spent in the open arms (EPM) [2]: increase in the time spent in the open arms but the difference did not reached significance | immobility in the forced swim test (restrained mice [3]): significantly lower than PBS-treated restrained mice
